The assay has as its system MV-4-11 cells. The assay is described as follows: Gene expression microarray analysis (Affymetrix PrimeView) and GSEA. It counts as cell-based, human. Set-up: RFU PODN (11730768_x_at) / Fold change /veh PODN (11730768_x_at) / RFU LINC00158 (11744669_a_at) / Fold change /veh LINC00158 (11744669_a_at) / RFU DUSP10 (11751237_a_at) / Fold change /veh DUSP10 (11751237_a_at) / RFU ID3 (11757404_x_at) / Fold change /veh ID3 (11757404_x_at) / RFU PLEKHG5 (11737974_s_at) / Fold change /veh PLEKHG5 (11737974_s_at) / RFU LRRC4B (11730491_at) / Fold change /veh LRRC4B (11730491_at) / RFU GIMAP4 (11747438_a_at) / Fold change /veh GIMAP4 (11747438_a_at) / RFU KRT8 (11758183_x_at) / Fold change /veh KRT8 (11758183_x_at) / RFU CNN1 (11734310_a_at) / Fold change /veh CNN1 (11734310_a_at) / RFU VPS37D (11726825_at) / Fold change /veh VPS37D (11726825_at) / RFU C10orf10 (11716522_x_at) / Fold change /veh C10orf10 (11716522_x_at) / RFU KIR2DL2 /// KIR2DL4 /// KIR2DL5A /// KIR2DL5B /// KIR2DS1 /// KIR2DS2 /// KIR2DS3 /// KIR2DS4 /// KIR3DL3 /// KIR3DL3 /// KIR3DS1 (11738374_at) / Fold change /veh KIR2DL2 /// KIR2DL4 /// KIR2DL5A /// KIR2DL5B /// KIR2DS1 /// KIR2DS2 /// KIR2DS3 /// KIR2DS4 /// KIR3DL3 /// KIR3DL3 /// KIR3DS1 (11738374_at) / RFU C1QL1 (11718748_at) / Fold change /veh C1QL1 (11718748_at) / RFU TMPRSS4 (11747572_a_at) / Fold change /veh TMPRSS4 (11747572_a_at) / RFU HAMP (11756126_x_at) / Fold change /veh HAMP (11756126_x_at) / RFU RNFT2 (11725882_a_at) / Fold change /veh RNFT2 (11725882_a_at) / RFU NR4A2 (11747474_a_at) / Fold change /veh NR4A2 (11747474_a_at) / RFU ABCC12 (11746883_a_at) / Fold change /veh ABCC12 (11746883_a_at) / RFU TMEM136 (11760407_x_at) / Fold change /veh TMEM136 (11760407_x_at) / RFU CLDN22 /// WWC2 (11732394_at) / Fold change /veh CLDN22 /// WWC2 (11732394_at) / RFU HLA-DPB1 (11760878_x_at) / Fold change /veh HLA-DPB1 (11760878_x_at) / RFU SPINT1 (11716480_a_at) / Fold change /veh SPINT1 (11716480_a_at) / RFU GAP43 (11754022_s_at) / Fold change /veh GAP43 (11754022_s_at) / RFU A4GNT (11735810_at) / Fold change /veh A4GNT (11735810_at) / RFU PRB3 (11715151_x_at) / Fold change /veh PRB3 (11715151_x_at) / RFU TUBB4B (11761932_at) / Fold change /veh TUBB4B (11761932_at) / RFU CAPN14 (11732068_a_at) / Fold change /veh CAPN14 (11732068_a_at) / RFU TMCC2 (11721928_a_at) / Fold change /veh TMCC2 (11721928_a_at) / RFU IRGQ (11745062_a_at) / Fold change /veh IRGQ (11745062_a_at) / RFU FAM174B (11720279_a_at) / Fold change /veh FAM174B (11720279_a_at) / RFU TMPRSS4 (11748680_a_at) / Fold change /veh TMPRSS4 (11748680_a_at) / RFU FAM212B (11763350_a_at) / Fold change /veh FAM212B (11763350_a_at) / RFU PLEKHG5 (11743358_a_at) / Fold change /veh PLEKHG5 (11743358_a_at) / RFU ZSCAN30 (11745921_a_at) / Fold change /veh ZSCAN30 (11745921_a_at) / RFU CMKLR1 (11741424_a_at) / Fold change /veh CMKLR1 (11741424_a_at) / RFU LOC101060620 /// MAPK8IP1 (11723275_at) / Fold change /veh LOC101060620 /// MAPK8IP1 (11723275_at) / RFU SPTSSB (11747773_x_at) / Fold change /veh SPTSSB (11747773_x_at) / RFU PRSS12 (11739890_at) / Fold change /veh PRSS12 (11739890_at) / RFU BIN1 (11741810_x_at) / Fold change /veh BIN1 (11741810_x_at) / RFU WNT11 (11732464_a_at) / Fold change /veh WNT11 (11732464_a_at) / RFU C10orf10 (11716521_a_at) / Fold change /veh C10orf10 (11716521_a_at) / RFU C5orf56 (11738089_at) / Fold change /veh C5orf56 (11738089_at) / RFU CYB561 (11721691_x_at) / Fold change /veh CYB561 (11721691_x_at) / RFU ANKRD19P (11752326_a_at) / Fold change /veh ANKRD19P (11752326_a_at) / RFU OR2T12 /// OR2T33 /// OR2T8 (11738714_s_at) / Fold change /veh OR2T12 /// OR2T33 /// OR2T8 (11738714_s_at) / RFU VCAN (11748164_a_at) / Fold change /veh VCAN (11748164_a_at) / RFU JSRP1 (11732532_at) / Fold change /veh JSRP1 (11732532_at) / RFU KRTAP10-11 (11738290_x_at) / Fold change /veh KRTAP10-11 (11738290_x_at) / RFU MYO3A (11730013_a_at) / Fold change /veh MYO3A (11730013_a_at) / RFU EBF3 (11725865_a_at) / Fold change /veh EBF3 (11725865_a_at) / RFU CAMK2N1 (11719241_x_at) / Fold change /veh CAMK2N1 (11719241_x_at) / RFU C5orf56 (11738088_a_at) / Fold change /veh C5orf56 (11738088_a_at) / RFU OLFML3 (11715873_a_at) / Fold change /veh OLFML3 (11715873_a_at) / RFU LOC100653217 /// NTM (11731650_a_at) / Fold change /veh LOC100653217 /// NTM (11731650_a_at) / RFU MAPK11 (11762145_a_at) / Fold change /veh MAPK11 (11762145_a_at) / RFU FIZ1 (11724087_x_at) / Fold change /veh FIZ1 (11724087_x_at) / RFU OASL (11726364_x_at) / Fold change /veh OASL (11726364_x_at) / RFU SOX15 (11748057_x_at) / Fold change /veh SOX15 (11748057_x_at) / RFU CD79A (11719716_a_at) / Fold change /veh CD79A (11719716_a_at) / RFU HIST1H1D (11736915_at) / Fold change /veh HIST1H1D (11736915_at) / RFU CASKIN2 (11723855_a_at) / Fold change /veh CASKIN2 (11723855_a_at) / RFU LOC730098 (11760151_x_at) / Fold change /veh LOC730098 (11760151_x_at) / RFU OR4N2 (11742367_at) / Fold change /veh OR4N2 (11742367_at) / RFU PRRT2 (11749266_a_at) / Fold change /veh PRRT2 (11749266_a_at) / RFU SNX32 (11753110_a_at) / Fold change /veh SNX32 (11753110_a_at) / RFU CDHR5 (11726645_a_at) / Fold change /veh CDHR5 (11726645_a_at) / RFU RCAN1 (11760418_a_at) / Fold change /veh RCAN1 (11760418_a_at) / RFU FAM167A (11723789_a_at) / Fold change /veh FAM167A (11723789_a_at) / RFU FAM26E (11764081_at) / Fold change /veh FAM26E (11764081_at) / RFU ISYNA1 (11749810_s_at) / Fold change /veh ISYNA1 (11749810_s_at) / RFU ACY1 (11761880_at) / Fold change /veh ACY1 (11761880_at) / RFU 11764098_at / Fold change /veh 11764098_at / RFU SAMD14 (11745864_x_at) / Fold change /veh SAMD14 (11745864_x_at) / RFU NPB (11741838_a_at) / Fold change /veh NPB (11741838_a_at) / RFU TMPRSS6 (11731388_a_at) / Fold change /veh TMPRSS6 (11731388_a_at) / RFU KRTAP10-2 (11738614_at) / Fold change /veh KRTAP10-2 (11738614_at) / RFU ARHGAP8 /// PRR5-ARHGAP8 (11727945_x_at) / Fold change /veh ARHGAP8 /// PRR5-ARHGAP8 (11727945_x_at) / RFU KRTAP5-7 /// NADSYN1 (11734609_at) / Fold change /veh KRTAP5-7 /// NADSYN1 (11734609_at) / RFU RASL12 (11751679_a_at) / Fold change /veh RASL12 (11751679_a_at) / RFU CDKN2B (11736163_a_at) / Fold change /veh CDKN2B (11736163_a_at) / RFU PRF1 (11729649_at) / Fold change /veh PRF1 (11729649_at) / RFU, ZNF638 /// ZNF638-IT1 / Fold change vs veh, ZNF638 /// ZNF638-IT1 / RFU, PANK3 / Fold change vs veh, PANK3 / RFU, SH3YL1 / Fold change vs veh, SH3YL1 / RFU, ZEB2 / Fold change vs veh, ZEB2 / RFU, NRIP1 / Fold change vs veh, NRIP1 / RFU, PTTG1IP / Fold change vs veh, PTTG1IP / RFU, CAPN2 / Fold change vs veh, CAPN2 / RFU, MED14 / Fold change vs veh, MED14 / RFU, SNORA58 / Fold change vs veh, SNORA58 / RFU, C1orf63 / Fold change vs veh, C1orf63 / RFU, LRRFIP1 / Fold change vs veh, LRRFIP1 / RFU, NDUFAF7 / Fold change vs veh, NDUFAF7 / RFU, SLC12A2 / Fold change vs veh, SLC12A2 / RFU, IBTK / Fold change vs veh, IBTK / RFU, ESF1 / Fold change vs veh, ESF1 / Fold change vs veh, TMEM50B / RFU, TAOK1 / Fold change vs veh, TAOK1 / RFU, ACBD3 / Fold change vs veh, ACBD3 / RFU, TMA16 / Fold change vs veh, TMA16 / RFU, RWDD3 / Fold change vs veh, RWDD3 / RFU, BCAT1 / Fold change vs veh, BCAT1 / RFU, EDEM3 / Fold change vs veh, EDEM3 / RFU, TMEM33 / Fold change vs veh, TMEM33 / RFU, WDR75 / Fold change vs veh, WDR75 / RFU, AHCTF1 / Fold change vs veh, AHCTF1 / RFU, TFRC / Fold change vs veh, TFRC / RFU, ZDHHC17 / Fold change vs veh, ZDHHC17 / RFU, NOM1 / Fold change vs veh, NOM1 / RFU, ARL8B / Fold change vs veh, ARL8B / RFU, ZBTB11 / Fold change vs veh, ZBTB11 / RFU, TAMM41 / Fold change vs veh, TAMM41 / RFU, KIAA1704 /// LOC100996395 / Fold change vs veh, KIAA1704 /// LOC100996395 / RFU, ING1 / Fold change vs veh, ING1 / RFU, TRMT61B / Fold change vs veh, TRMT61B / RFU, FUBP3 / Fold change vs veh, FUBP3 / RFU, TP53 / Fold change vs veh, TP53 / RFU, TNKS2 / Fold change vs veh, TNKS2 / RFU, ZFP14 / Fold change vs veh, ZFP14 / RFU, ACTR2 / Fold change vs veh, ACTR2 / RFU, PPP3R1 / Fold change vs veh, PPP3R1 / RFU, PIK3R1 / Fold change vs veh, PIK3R1 / RFU, HNRNPA1 / Fold change vs veh, HNRNPA1 / RFU, RNF170 / Fold change vs veh, RNF170 / RFU, ZNF28 / Fold change vs veh, ZNF28 / RFU, RNGTT / Fold change vs veh, RNGTT / RFU, OGT / Fold change vs veh, OGT / RFU, BRD1 / Fold change vs veh, BRD1 / RFU, MARS / Fold change vs veh, MARS / RFU, ZNF655 / Fold change vs veh, ZNF655 / RFU, FAHD1 / Fold change vs veh, FAHD1 / RFU, BDP1 / Fold change vs veh, BDP1 / RFU, LRRCC1 / Fold change vs veh, LRRCC1 / RFU, ARID1A / Fold change vs veh, ARID1A / RFU, ZNF146 / Fold change vs veh, ZNF146 / RFU, ZNF330 / Fold change vs veh, ZNF330 / RFU, GPN3 / Fold change vs veh, GPN3 / RFU, C9orf123 / Fold change vs veh, C9orf123 / RFU, N4BP2L2 / Fold change vs veh, N4BP2L2 / RFU, ARFIP1 / Fold change vs veh, ARFIP1 / RFU, FAM179B / Fold change vs veh, FAM179B / RFU, BCL10 / Fold change vs veh, BCL10 / RFU, UHRF1BP1L / Fold change vs veh, UHRF1BP1L / RFU, BET1 / Fold change vs veh, BET1 / RFU, CNOT2 / Fold change vs veh, CNOT2 / RFU, ZNF268 / Fold change vs veh, ZNF268 / Fold change vs veh, ZNF507 / RFU, DGCR2 / Fold change vs veh, DGCR2 / RFU, WDSUB1 / Fold change vs veh, WDSUB1 / Fold change vs veh, HSP90B1 /// MIR3652 / RFU, ADSS / Fold change vs veh, ADSS / RFU, GK / Fold change vs veh, GK / RFU, ZNF148 / Fold change vs veh, ZNF148 / RFU, TAF9 / Fold change vs veh, TAF9 / RFU, SLC1A5 / Fold change vs veh, SLC1A5 / RFU, SLMO2 / Fold change vs veh, SLMO2 / RFU, ABCC4 / Fold change vs veh, ABCC4 / RFU, LOC101060439 /// RAP1B / Fold change vs veh, LOC101060439 /// RAP1B / RFU, RFX7 / Fold change vs veh, RFX7 / RFU, GTPBP10 / Fold change vs veh, GTPBP10 / RFU, CNEP1R1 / Fold change vs veh, CNEP1R1 / RFU, BIVM-ERCC5 /// ERCC5 / Fold change vs veh, BIVM-ERCC5 /// ERCC5 / RFU, ILF3 / Fold change vs veh, ILF3 / RFU 11762660_at / Fold change /veh 11762660_at / RFU VCAN (11757783_s_at) / Fold change /veh VCAN (11757783_s_at) / RFU DDX43 (11728927_at) / Fold change /veh DDX43 (11728927_at) / RFU KRT8 (11758188_x_at) / Fold change /veh KRT8 (11758188_x_at) / RFU NKD1 (11759106_at) / Fold change /veh NKD1 (11759106_at) / RFU SRD5A1 (11742802_a_at) / Fold change /veh SRD5A1 (11742802_a_at) / RFU TPSAB1 /// TPSB2 (11721975_s_at) / Fold change /veh TPSAB1 /// TPSB2 (11721975_s_at) / RFU GSTM3 (11746129_a_at) / Fold change /veh GSTM3 (11746129_a_at) / RFU IL23R (11737362_x_at) / Fold change /veh IL23R (11737362_x_at) / RFU TMEM51 (11727254_a_at) / Fold change /veh TMEM51 (11727254_a_at) / RFU PIWIL2 (11732686_x_at) / Fold change /veh PIWIL2 (11732686_x_at) / RFU ORM1 (11744905_x_at) / Fold change /veh ORM1 (11744905_x_at) / RFU CCDC152 (11743942_at) / Fold change /veh CCDC152 (11743942_at) / RFU ECM1 (11717891_a_at) / Fold change /veh ECM1 (11717891_a_at) / RFU IL23R (11748794_a_at) / Fold change /veh IL23R (11748794_a_at) / RFU TNFAIP8L3 (11732012_x_at) / Fold change /veh TNFAIP8L3 (11732012_x_at) / RFU MBOAT4 (11741988_at) / Fold change /veh MBOAT4 (11741988_at) / RFU 11764193_at / Fold change /veh 11764193_at / RFU TMEM53 (11763286_at) / Fold change /veh TMEM53 (11763286_at) / RFU MAGEB2 (11727129_at) / Fold change /veh MAGEB2 (11727129_at) / RFU TMEM200A (11744735_a_at) / Fold change /veh TMEM200A (11744735_a_at) / RFU CCDC152 (11751479_a_at) / Fold change /veh CCDC152 (11751479_a_at) / RFU FAM211A (11726209_a_at) / Fold change /veh FAM211A (11726209_a_at) / RFU RGS16 (11746705_a_at) / Fold change /veh RGS16 (11746705_a_at) / RFU VCAN (11755009_s_at) / Fold change /veh VCAN (11755009_s_at) / RFU RHOB (11743442_s_at) / Fold change /veh RHOB (11743442_s_at) / RFU RGS16 (11720943_a_at) / Fold change /veh RGS16 (11720943_a_at) / RFU RGS16 (11720944_at) / Fold change /veh RGS16 (11720944_at) / RFU, VPS4B / Fold change vs veh, VPS4B / RFU, CREB1 / Fold change vs veh, CREB1 / RFU, DNAJC13 / Fold change vs veh, DNAJC13 / RFU, GNAQ / Fold change vs veh, GNAQ / RFU, CDK5R1 / Fold change vs veh, CDK5R1 / RFU, ZRANB3 / Fold change vs veh, ZRANB3 / RFU, CUL4A / Fold change vs veh, CUL4A / RFU, CCNY / Fold change vs veh, CCNY / RFU, UFL1 / Fold change vs veh, UFL1 / RFU, COG3 / Fold change vs veh, COG3 / RFU, DIAPH2 / Fold change vs veh, DIAPH2 / RFU, SKA2 / Fold change vs veh, SKA2 / RFU, AFF3 / Fold change vs veh, AFF3 / RFU, LMF1 / Fold change vs veh, LMF1 / RFU, IPO11 / Fold change vs veh, IPO11 / RFU, DFFB / Fold change vs veh, DFFB / RFU, FOXP1 / Fold change vs veh, FOXP1 / RFU, CARD8 / Fold change vs veh, CARD8 / RFU, STRN3 / Fold change vs veh, STRN3 / RFU, ADK / Fold change vs veh, ADK / RFU, RASSF2 / Fold change vs veh, RASSF2 / RFU, WIPF1 / Fold change vs veh, WIPF1 / RFU, LARP1B / Fold change vs veh, LARP1B / RFU, RASA1 / Fold change vs veh, RASA1 / RFU, RB1 / Fold change vs veh, RB1 / RFU, PPFIA1 / Fold change vs veh, PPFIA1 / RFU, MAT2A / Fold change vs veh, MAT2A / RFU, CCT5 / Fold change vs veh, CCT5 / RFU, WDR92 / Fold change vs veh, WDR92 / RFU, CUX1 / Fold change vs veh, CUX1 / RFU, TTC7A / Fold change vs veh, TTC7A / RFU, TMEM135 / Fold change vs veh, TMEM135 / RFU, DEPTOR / Fold change vs veh, DEPTOR / RFU, CPM / Fold change vs veh, CPM / RFU, DNAJB6 / Fold change vs veh, DNAJB6 / RFU, CACNA2D3 / Fold change vs veh, CACNA2D3 / RFU, DTX4 / Fold change vs veh, DTX4 / RFU, TFCP2 / Fold change vs veh, TFCP2 / RFU, GMCL1 /// GMCL1P1 / Fold change vs veh, GMCL1 /// GMCL1P1 / RFU, AEBP2 / Fold change vs veh, AEBP2 / RFU, SNHG1 /// SNORD22 /// SNORD25 /// SNORD26 /// SNORD27 /// SNORD28 /// SNORD29 /// SNORD31 / Fold change vs veh, SNHG1 /// SNORD22 /// SNORD25 /// SNORD26 /// SNORD27 /// SNORD28 /// SNORD29 /// SNORD31 / Fold change (Aza/veh), C12orf56 (ProbeSet 11735607_a_at) / Fold change (ACY-1035/veh), C12orf56 (ProbeSet 11735607_a_at) / Fold change (Aza/veh), FGFR1OP (ProbeSet 11751329_s_at) / Fold change (ACY-1035/veh), FGFR1OP (ProbeSet 11751329_s_at) / Fold change (Aza/veh), VPS36 (ProbeSet 11739960_a_at) / Fold change (ACY-1035/veh), VPS36 (ProbeSet 11739960_a_at) / RFU SYPL1 (11715823_x_at) / Fold change /veh SYPL1 (11715823_x_at) / RFU IGFBP7 (11715501_s_at) / Fold change /veh IGFBP7 (11715501_s_at) / RFU REEP3 (11722064_at) / Fold change /veh REEP3 (11722064_at) / RFU IGLL1 (11728026_x_at) / Fold change /veh IGLL1 (11728026_x_at): dose or concentration left out as unconfirmed. To be noted: MV-4-11 cells, 48 hours.

With `Nc1ncn([C@@H]2O[C@H](CO)[C@@H](O)[C@H]2O)c(=O)n1` [azacitidine], the “Fold change /veh KRT8 (11758183_x_at)” value was 1.18.

(Values after publication PMC5218480 (PLoS ONE, 2017).)
